Laboratory results published in patent US4595757A, “N-alkylated benzo- and hetero-fused antisecretory agents” (American Home Products Corporation, priority 1984, dated 1986).

Legend:
[1] = test system: spontaneous gastric secretions; experiment: Pyloric-ligated rat assay (inhibition of gastric acid output); format: in vivo; conditions: male rats, intraduodenal, 4 hours after pylorus ligation
Description: The procedures for these tests and the results for some of the compounds of the invention are presented at the end of the following examples, which will serve to illustrate the present invention. […] Male Charles River SC/CD rats weighing 190-260 gm are fasted for 24 hours with access to tap water ad libitum until the test. Groups of 10 rats each are assigned to either control or drug treatment. Under […] anesthesia, a midline laparotomy is performed and a ligature is tightly secured around the pylorus. Either control vehicle (0.25% aqueous methylcellulose) or drug in control vehicle is administered intraduodenally, 1 ml/kg, immediately after ligating the pylorus. The abdominal incision is closed with wound clips and the rats (2 per cage) are allowed to recover from anesthesia. After four hours the rats are sacrificed by CO2 asphyxiation. Their stomachs are removed and the accumulated gastric contents are emptied into graduated tubes. The gastric samples are centrifuged for 10 minutes. Samples contaminated with food or fecal material are discarded. The volume of gastric juice is recorded and the acid concentration of 1.0 ml sample aliquots is measured by electrometric titration to pH 7.0 using 0.1N sodium hydroxide. Titratable acid output is calculated in microequivalents and the percent inhibition of acid output is calculated as follows: [formula] The test results for a compound of the invention and for the known (H^+ +K^+)ATPase inhibitors omeprazole and timoprazole, expressed as ED50 's, are as follows: […]

H2-receptor = target: T1, H2-receptor (Cavia porcellus, UniProt P47747); experiment: Histamine-induced positive chronotropic response in the spontaneously beating right atrium of the guinea pig heart (H2-receptor antagonism); conditions: at a level of 1×10^-6 M; 30 minutes after addition
T1 construct: from tissue; host or cells: Guinea pig right atrium, spontaneously beating
Description: The tissue is allowed to stabilize over 1 hour. Individual contractions are recorded with a force-displacement transducer through a strain gauge coupler. […] The test compound is added to the tissue bath at the desired final concentration. Thirty minutes after addition of the compound, a fresh histamine dose response curve is again obtained. Then the response to histamine in the presence of antagonist is compared to the histamine control response. This procedure is repeated, using fresh tissues, for each concentration of antagonist tested.

[2] = test system: cold restraint/stress ulcerogenesis; experiment: Cold restraint/stress ulcerogenesis assay (cytoprotective effect); format: in vivo; conditions: Rattus norvegicus; male rats, oral, cold (4±1° C.) restraint; read-out: Inhibition, ED50 (cold restraint/stress ulcers)
Description: The procedures for these tests and the results for some of the compounds of the invention are presented at the end of the following examples, which will serve to illustrate the present invention. The ability of the compounds of the invention to exert a cytoprotective effect is examined in the cold restraint/stress ulcerogenesis assay. Male Charles River rats weighing between 120-160 gm are deprived of food for 18 hours with water ad libitum. The rats are divided into groups of ten and dosed by the oral route with test compound, 50 mg/kg, or vehicle control, 0.5% carboxymethylcellulose, in a volume of 5 ml/kg. Immediately after dosing, the animals are inserted into aluminum restraining tubes measuring 15/8 inches in diameter by 8 inches and placed in the cold (4±1° C.). […] At the end of the test period the animals are killed, the duodenum and esophagus ligated, and the stomach removed. The stomachs are inflated with water, opened along the lesser curvature, spread over the index finger, and the mucosa wiped off to expose the submucosa. The number of hemorrhage sites in the submucosa are counted by visual observation and recorded. Compounds are reported by determining (A) a percent inhibition which is calculated as follows: [formula] or (B) a mean ulcer number ±S.E.M. for each drug treated group and comparing it to that calculated for the control group. The test results for a compound of the invention and for the known (H^+ +K^+)ATPhase inhibitors omeprazole and timoprazole, expressed as ED50 's, are as follows: […]

(H^+ +K^+)ATPase [3] = target: T2, (H^+ +K^+)ATPase (Rattus norvegicus, UniProt P09626); experiment: Inhibition of dibutyryl cyclic AMP-stimulated 14C-aminopyrine uptake by rat gastric mucosal cells ((H^+ +K^+)ATPase inhibition); format: cell-based; conditions: 37° C., 2 hours
T2 construct: Rat gastric mucosal tissue is collected from 170-220 g male Sprague-Dawley rats; from tissue; host or cells: Dispersed gastric mucosal cells from male Sprague-Dawley rats (Pronase E digestion)
From the text: The procedures for these tests and the results for some of the compounds of the invention are presented at the end of the following examples, which will serve to illustrate the present invention. The determination of the rate of gastric acid secretion cannot be measured quantitatively with isolated gastric glands or cells. However, the acid secretory response can be monitored semiquantitatively by measuring the uptake of a radiolabelled weak base, ^14 C-aminopyrine (^14 C-AP), which accumulates in the glands in proportion to the pH differences between the intraglandular acid compartments and the surrounding medium. The following assay uses this effect in order to measure the ability of the compounds of the invention to inhibit gastric acid secretion by blocking (H^+ +K^+)ATPase. Rat gastric mucosal tissue is collected from 170-220 g male Sprague-Dawley rats. […] The Pronase E is poured off and the tissues are rinsed in a small amount of DNAse solution (2.5 mg DNAse in 10 ml of Hanks Balanced Salt Solution (HBE) with addition of 1 mg/ml of BSA and 0.76 mg/ml of EGTA). 4 ml of stock DNAse solution is added to 76 ml of HBE and aerated before use. The pH of the solution is adjusted to 7.5 with 2M Tris Buffer. The comminuted tissue is passed through nylon mesh into DNAse solution and incubated at ambient temperature for 20 minutes. The cells obtained thereby are dispersed, filtered through nylon mesh and centrifuged at 1000 RPM's for 7 minutes. […] Immediately before use, 6.1 mg of L-cysteine is dissolved in 5 ml RPMI-BSA. The final incubation medium is (by volume) 80% RPMI-BSA, 10% glucose/PA/IMX solution and 10% L-cysteine solution. For the actual assay procedure, microfuge tubes are prepared as follows: Into each tube are placed (a) 100 μl of the stimulant dibutyryl cyclic AMP made up in H2 O or an equal volume of distilled H2 O; (b) 100 μl of drug made up in RPMSI-BSA or an equal volume of RPMI-BSA; (c) 750 μl of the cell suspension; and (d) 50 μl of ^14 C-aminopyrine solution. The tubes are shaken in a 37° C. water bath in a O2 /CO2 (95/5%) atmosphere at about 110 cycles/minute, and incubated for 2 hours. The tubes are then microfuged for 30 seconds, the pellet surface rinsed with 500 μl RPMI-BSA and the cells dispersed in 500 μl distilled H2 O. The cells are then transferred to mini-scintillation vials with 5.75 ml of Hydrofluor, vortexed and counted in a Packard liquid scintillation counter. The inhibition of ^14 C-AP uptake is quantified from the scintillation count results and the IC50 for test compounds is calculated. The results for some of the compounds of the invention and for the two known (H^+ +K^+)ATPase inhibitors, omeprazole and timoprazole, are given in Table I.

gastric secretions = conditions: cited from earlier work
(H^+ +K^+)ATPase [4] = conditions: Fellenius, Nature 220, 159-160 (1981); cited from earlier work
[5] = test system: isolated guinea pig gastric mucosa; conditions: dibutyryl cyclic AMP stimulation after pretreatment with theophylline; cited from earlier work

T2 sequence (P09626 whole entry): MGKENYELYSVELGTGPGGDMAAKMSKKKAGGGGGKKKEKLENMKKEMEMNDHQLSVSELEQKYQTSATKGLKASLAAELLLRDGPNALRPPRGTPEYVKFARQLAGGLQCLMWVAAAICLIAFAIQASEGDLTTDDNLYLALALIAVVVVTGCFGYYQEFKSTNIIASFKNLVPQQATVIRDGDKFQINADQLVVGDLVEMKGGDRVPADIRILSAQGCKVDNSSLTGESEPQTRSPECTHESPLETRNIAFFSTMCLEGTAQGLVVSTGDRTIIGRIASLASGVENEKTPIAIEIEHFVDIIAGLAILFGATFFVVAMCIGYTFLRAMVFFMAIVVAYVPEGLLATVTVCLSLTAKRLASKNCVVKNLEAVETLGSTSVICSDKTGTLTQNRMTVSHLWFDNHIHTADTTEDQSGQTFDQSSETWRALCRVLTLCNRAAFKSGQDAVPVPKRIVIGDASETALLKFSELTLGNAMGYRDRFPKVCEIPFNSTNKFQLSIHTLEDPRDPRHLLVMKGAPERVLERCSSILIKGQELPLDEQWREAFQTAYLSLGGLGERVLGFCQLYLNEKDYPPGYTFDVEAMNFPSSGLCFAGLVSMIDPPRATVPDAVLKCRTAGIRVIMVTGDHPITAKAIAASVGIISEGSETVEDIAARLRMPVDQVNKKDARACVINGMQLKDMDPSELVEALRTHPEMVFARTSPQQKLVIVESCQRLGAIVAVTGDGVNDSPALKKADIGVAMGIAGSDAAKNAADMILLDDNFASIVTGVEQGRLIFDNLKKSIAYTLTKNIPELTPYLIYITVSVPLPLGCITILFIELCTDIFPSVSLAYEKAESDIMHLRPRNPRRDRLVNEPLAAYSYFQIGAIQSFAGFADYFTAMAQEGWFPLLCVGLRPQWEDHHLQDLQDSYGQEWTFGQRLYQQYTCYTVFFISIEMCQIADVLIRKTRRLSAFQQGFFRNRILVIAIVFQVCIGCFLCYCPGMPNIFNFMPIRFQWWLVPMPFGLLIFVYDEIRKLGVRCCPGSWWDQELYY
T2 sequence (P18598 whole entry partner): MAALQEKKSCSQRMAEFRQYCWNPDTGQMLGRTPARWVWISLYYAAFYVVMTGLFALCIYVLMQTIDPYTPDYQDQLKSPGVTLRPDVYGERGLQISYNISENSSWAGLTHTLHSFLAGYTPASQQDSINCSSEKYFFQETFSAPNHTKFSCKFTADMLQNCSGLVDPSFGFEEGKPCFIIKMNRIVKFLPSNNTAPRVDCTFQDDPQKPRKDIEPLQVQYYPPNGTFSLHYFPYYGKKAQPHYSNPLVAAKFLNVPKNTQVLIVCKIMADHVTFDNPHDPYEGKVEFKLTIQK
T1 sequence (P47747 whole entry): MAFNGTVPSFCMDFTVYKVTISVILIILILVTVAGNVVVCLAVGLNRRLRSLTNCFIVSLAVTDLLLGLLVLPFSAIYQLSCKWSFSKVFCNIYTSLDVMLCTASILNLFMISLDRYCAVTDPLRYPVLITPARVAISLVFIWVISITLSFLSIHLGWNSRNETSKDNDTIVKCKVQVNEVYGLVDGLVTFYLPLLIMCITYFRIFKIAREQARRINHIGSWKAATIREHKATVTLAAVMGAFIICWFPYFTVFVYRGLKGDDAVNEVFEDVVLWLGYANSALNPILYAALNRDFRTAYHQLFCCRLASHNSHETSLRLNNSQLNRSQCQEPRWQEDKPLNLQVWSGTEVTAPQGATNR

Row | Compound | IC50 ((H^+ +K^+)ATPase [3]) [nM] | ED50 [1] [mg/kg] | ED50 [2] [mg/kg] | further results
1 | CN/C(=N/CCSCc1nc[nH]c1C)NC#N [cimetidine] |  |  |  | inhibition of gastric secretions (gastric secretions): inhibit only those gastric secretions which were agonized by histamine; inhibition of proton transport by inhibition of (H^+ +K^+)ATPase ((H^+ +K^+)ATPase [4]): devoid of this activity
2 | COc1ccc2[nH]c([S+]([O-])Cc3ncc(C)c(OC)c3C)nc2c1 (centres unmarked) [omeprazole] | 10 | 6 | 12 | inhibition of stimulated secretion in isolated guinea pig gastric mucosa [5]: such stimulated secretion can be inhibited by omeprazole; inhibition of proton transport by inhibition of (H^+ +K^+)ATPase ((H^+ +K^+)ATPase [4]): only omeprazole inhibited proton transport by the inhibition of (H^+ +K^+)ATPase
3 | O=S1(=O)N=C(N(CCCOc2cccc(CN3CCCCC3)c2)Cc2ccc3c(c2)OCO3)c2cscc21 [Example 3, N-(1,3-benzodioxol-5-ylmethyl)-N-[3-[3-(1-piperidinylmethyl)phenoxy]propyl]thieno[3,4-d]isothiazol-3-amine 1,1-dioxide, ethanedioate (1:1)] | 5000 |  |  | 
4 | Nc1c(N(CCCOc2cccc(CN3CCCCC3)c2)Cc2ccc3c(c2)OCO3)c(=O)c1=O [Example 4] | 10000 |  |  | 
5 | [O-][S+](Cc1ccccn1)c1nc2ccccc2[nH]1 (centres unmarked) [timoprazole] | 1000 | 4 | 8 | 

The next lines start with results.

Row | IC50 ((H^+ +K^+)ATPase [3]) [nM] | Compound | ED50 [1] [mg/kg] | ED50 [2] [mg/kg] | further results
6 | 400 | O=S1(=O)N=C(N(CCCOc2cccc(CN3CCCCC3)c2)Cc2ccccc2)c2cscc21 [Example 1, N-(Phenylmethyl)-N-[3-[3-(1-piperidinylmethyl)phenoxy]propyl]thieno[3,4-d]isothiazol-3-amine 1,1-dioxide, ethanedioate (1:1)] | 8 | 6 | H2-receptor antagonist activity (guinea pig right atrium) (H2-receptor): inactive
7 | 100 | O=S1(=O)N=C(N(CCCOc2cccc(CN3CCCCC3)c2)Cc2ccccc2)c2ccccc21 [Example 2, N-(Phenylmethyl)-N-[3-[3-(1-piperidinylmethyl)phenoxy]propyl]-1,2-benzoisothiazol-3-amine 1,1-dioxide, ethanedioate] |  |  | 
